{"source": "PubChem BioAssay AID977614", "about": "(Broad Institute, 2014)", "tested_on": "L. donovani amastigotes in THP-1 macrophages, DAPI imaging, 72 h", "test": "L. donovani intracellular amastigote growth inhibitors, imaging, THP-1 host macrophages, single concentration (AID 977614);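 note: signal is the parasite per host cell ratio from DAPI stained kinetoplasts and nuclei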", "note": "Activity calls are given as the source filed them.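 Rule for the calls: active = parasite count per well reduced by over 3 SD from the mean, with host cell number above 80% of untreated; inactive = the rest.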", "data": [{"molecule": "Cc1cccc(S(=O)(=O)N2C[C@@H]3[C@H](c4ccccc42)[C@@H](CO)N3C(=O)c2ccccc2)c1", "values": [{"measurement": "AC50", "result": "> 10 µM (inactive)"}]}, {"molecule": "O=C(NC[C@H]1[C@@H](c2ccccc2)[C@H](CO)N1C(=O)C1CCC1)NC1CCCC1", "values": [{"measurement": "AC50", "result": "> 10 µM (inactive)"}]}, {"molecule": "C[C@H]1CN([C@@H](C)CO)C(=O)CCCn2cc(nn2)CO[C@H]1CN(C)S(=O)(=O)c1ccc(-n2cccn2)cc1", "values": [{"measurement": "AC50", "result": "> 10 µM (inactive)"}]}, {"molecule": "C[C@@H]1CN([C@H](C)CO)C(=O)CCCn2nncc2CO[C@@H]1CN(C)C(=O)CCC(F)(F)F", "values": [{"measurement": "AC50", "result": "> 10 µM (inactive)"}]}, {"molecule": "O=C(CC(F)(F)F)N1C[C@H]2[C@@H](c3ccccc31)[C@@H](CO)N2C(=O)c1ccncc1", "values": [{"measurement": "AC50", "result": "> 10 µM (inactive)"}]}, {"molecule": "C[C@H](CO)N1C[C@H](C)[C@@H](CN(C)C(=O)Nc2ccccc2C(F)(F)F)OCc2cnnn2CCCC1=O", "values": [{"measurement": "AC50", "result": "> 10 µM (inactive)"}]}, {"molecule": "Cc1ccc(S(=O)(=O)N2C[C@H]3[C@@H](c4ccccc42)[C@H](CO)N3Cc2cccnc2)cc1", "values": [{"measurement": "AC50", "result": "> 10 µM (inactive)"}]}, {"molecule": "CC(=O)N1[C@H](CNC(=O)C2CC2)[C@@H](c2ccc(-c3ccccc3)cc2)[C@@H]1CO", "values": [{"measurement": "AC50", "result": "> 10 µM (inactive)"}]}, {"molecule": "CCN(C[C@@H]1[C@@H](c2ccccc2)[C@@H](CO)N1C(=O)COC)S(C)(=O)=O", "values": [{"measurement": "AC50", "result": "> 10 µM (inactive)"}]}, {"molecule": "COCC(=O)N1[C@H](CO)[C@H]2c3ccccc3N(C(=O)c3cccnc3)C[C@H]21", "values": [{"measurement": "AC50", "result": "> 10 µM (inactive)"}]}, {"molecule": "Cc1cccc(S(=O)(=O)N2C[C@H]3[C@@H](c4ccccc42)[C@@H](CO)N3CC2CCCC2)c1", "values": [{"measurement": "AC50", "result": "> 10 µM (inactive)"}]}, {"molecule": "O=C(C1CCC1)N1C[C@@H]2[C@H](c3ccccc31)[C@H](CO)N2Cc1ccccc1", "values": [{"measurement": "AC50", "result": "> 10 µM (inactive)"}]}, {"molecule": "CCN(C[C@@H]1[C@@H](c2ccc(-c3cccnc3)cc2)[C@@H](CO)N1C(C)=O)C(C)=O", "values": [{"measurement": "AC50", "result": "> 10 µM (inactive)"}]}, {"molecule": "OC[C@H]1N[C@@H](CNCC2CCC2)[C@@H]1c1ccc(C2=CCCCC2)cc1", "values": [{"measurement": "AC50", "result": "> 10 µM (inactive)"}]}, {"molecule": "COc1ccc(C(=O)N2C[C@H]3[C@@H](c4ccccc42)[C@@H](CO)N3C(=O)NC(C)C)cc1", "values": [{"measurement": "AC50", "result": "> 10 µM (inactive)"}]}, {"molecule": "C[C@H](CO)N1C[C@H](C)[C@H](CN(C)S(=O)(=O)c2ccccc2C#N)OCc2cnnn2CCCC1=O", "values": [{"measurement": "AC50", "result": "> 10 µM (inactive)"}]}, {"molecule": "O=C(Cc1cccnc1)N1[C@@H](CO)[C@H](c2ccccc2)[C@@H]1CNCC1CCC1", "values": [{"measurement": "AC50", "result": "> 10 µM (inactive)"}]}, {"molecule": "CN(C)CC(=O)N1C[C@@H]2[C@H](c3ccccc31)[C@H](CO)N2C(=O)c1ccccn1", "values": [{"measurement": "AC50", "result": "> 10 µM (inactive)"}]}, {"molecule": "C[C@H]1CN([C@@H](C)CO)C(=O)CCCn2cc(nn2)CO[C@@H]1CN(C)C(=O)NC1CCCCC1", "values": [{"measurement": "AC50", "result": "> 10 µM (inactive)"}]}, {"molecule": "C[C@@H]1CN([C@@H](C)CO)C(=O)CCCn2cc(nn2)CO[C@H]1CN(C)S(=O)(=O)c1cccc(C#N)c1", "values": [{"measurement": "AC50", "result": "> 10 µM (inactive)"}]}, {"molecule": "C/C=C/c1ccc([C@@H]2[C@@H](CNC(=O)CC3CC3)N(C(=O)CC)[C@H]2CO)cc1", "values": [{"measurement": "AC50", "result": "> 10 µM (inactive)"}]}, {"molecule": "O=C(Nc1ccccc1Cl)N1C[C@@H]2[C@H](c3ccccc31)[C@@H](CO)N2Cc1ccncc1", "values": [{"measurement": "AC50", "result": "> 10 µM (inactive)"}]}, {"molecule": "CC(C)N(C[C@H]1N[C@H](CO)[C@H]1c1ccccc1)S(=O)(=O)c1ccccc1", "values": [{"measurement": "AC50", "result": "> 10 µM (inactive)"}]}, {"molecule": "O=C(c1ccccn1)N1C[C@H]2[C@@H](c3ccccc31)[C@@H](CO)N2C(=O)C1CCCCC1", "values": [{"measurement": "AC50", "result": "> 10 µM (inactive)"}]}, {"molecule": "O=C(C1CCOCC1)N1C[C@@H]2[C@H](c3ccccc31)[C@H](CO)N2C(=O)Cc1ccccn1", "values": [{"measurement": "AC50", "result": "> 10 µM (inactive)"}]}, {"molecule": "C[C@@H]1CN([C@@H](C)CO)C(=O)CCCn2nncc2CO[C@H]1CN(C)C(=O)Nc1ccc(-c2cccs2)cc1", "values": [{"measurement": "AC50", "result": "> 10 µM (inactive)"}]}, {"molecule": "C[C@H]1CN([C@@H](C)CO)C(=O)CCCn2nncc2CO[C@@H]1CN(C)C(=O)CCC(F)(F)F", "values": [{"measurement": "AC50", "result": "> 10 µM (inactive)"}]}, {"molecule": "Cc1noc(C)c1S(=O)(=O)N(C)C[C@@H]1OCc2cnnn2CCCC(=O)N([C@@H](C)CO)C[C@@H]1C", "values": [{"measurement": "AC50", "result": "> 10 µM (inactive)"}]}, {"molecule": "C/C=C/c1ccc([C@@H]2[C@H](CO)N[C@H]2CNS(=O)(=O)c2ccccc2)cc1", "values": [{"measurement": "AC50", "result": "> 10 µM (inactive)"}]}, {"molecule": "C[C@@H]1CN([C@@H](C)CO)C(=O)CCCn2nncc2CO[C@H]1CN(C)CC1CCCCC1", "values": [{"measurement": "AC50", "result": "> 10 µM (inactive)"}]}, {"molecule": "CC(C)CN(C[C@H]1N[C@H](CO)[C@@H]1c1ccccc1)C(=O)C1CCCCC1", "values": [{"measurement": "AC50", "result": "> 10 µM (inactive)"}]}, {"molecule": "CCC(=O)N1[C@H](CO)[C@H](c2ccc(C#CC3CCCCC3)cc2)[C@@H]1CNC(C)C", "values": [{"measurement": "AC50", "result": "> 10 µM (inactive)"}]}, {"molecule": "COCC(=O)N1[C@H](CO)[C@H]2c3ccccc3N(C(=O)Nc3ccccc3Cl)C[C@H]21", "values": [{"measurement": "AC50", "result": "> 10 µM (inactive)"}]}, {"molecule": "CN1C[C@@H]2[C@H](c3ccccc31)[C@@H](CO)N2C(=O)C1CCOCC1", "values": [{"measurement": "AC50", "result": "> 10 µM (inactive)"}]}, {"molecule": "CC(C)N(C[C@H]1[C@@H](c2ccccc2)[C@H](CO)N1S(C)(=O)=O)C(=O)CN(C)C", "values": [{"measurement": "AC50", "result": "> 10 µM (inactive)"}]}, {"molecule": "O=C(CC1CC1)N1[C@H](CO)[C@H]2c3ccccc3N(S(=O)(=O)c3ccccc3F)C[C@H]21", "values": [{"measurement": "AC50", "result": "> 10 µM (inactive)"}]}, {"molecule": "O=C(C1CCCCC1)N1[C@@H]2CNc3ccccc3[C@@H]2[C@@H]1CO", "values": [{"measurement": "AC50", "result": "> 10 µM (inactive)"}]}, {"molecule": "CCN(C[C@H]1[C@H](c2ccc(-c3cccnc3)cc2)[C@H](CO)N1C(C)=O)C(C)=O", "values": [{"measurement": "AC50", "result": "> 10 µM (inactive)"}]}, {"molecule": "Cc1ccc(S(=O)(=O)N2C[C@@H]3[C@H](c4ccccc42)[C@@H](CO)N3Cc2cccnc2)cc1", "values": [{"measurement": "AC50", "result": "> 10 µM (inactive)"}]}, {"molecule": "C[C@H]1CN([C@@H](C)CO)C(=O)CCCn2nncc2CO[C@@H]1CN(C)Cc1cccc(C(F)(F)F)c1", "values": [{"measurement": "AC50", "result": "> 10 µM (inactive)"}]}, {"molecule": "C[C@H]1CN([C@@H](C)CO)C(=O)CCCn2nncc2CO[C@@H]1CN(C)C(=O)Nc1cccc(Oc2ccccn2)c1", "values": [{"measurement": "AC50", "result": "> 10 µM (inactive)"}]}, {"molecule": "O=C(C1CCCCC1)N1[C@@H]2CN(S(=O)(=O)c3ccccc3)c3ccccc3[C@@H]2[C@@H]1CO", "values": [{"measurement": "AC50", "result": "> 10 µM (inactive)"}]}, {"molecule": "OC[C@H]1[C@@H]2c3ccccc3NC[C@@H]2N1Cc1cccnc1", "values": [{"measurement": "AC50", "result": "> 10 µM (inactive)"}]}, {"molecule": "C[C@H]1CN([C@@H](C)CO)C(=O)CCCn2nncc2CO[C@H]1CN(C)S(=O)(=O)c1ccc(Oc2ccccc2)nc1", "values": [{"measurement": "AC50", "result": "> 10 µM (inactive)"}]}, {"molecule": "C[C@@H]1CN([C@H](C)CO)C(=O)CCCn2nncc2CO[C@@H]1CN(C)S(=O)(=O)c1cn(C)cn1", "values": [{"measurement": "AC50", "result": "> 10 µM (inactive)"}]}, {"molecule": "COc1ccccc1CN1[C@H](CO)[C@H]2c3ccccc3N(C(=O)C3CCOCC3)C[C@H]21", "values": [{"measurement": "AC50", "result": "> 10 µM (inactive)"}]}, {"molecule": "CC(C)NC(=O)N1[C@H](CO)[C@@H]2c3ccccc3N(C)C[C@@H]21", "values": [{"measurement": "AC50", "result": "> 10 µM (inactive)"}]}, {"molecule": "COc1ccc(CN(C)C[C@H]2OCc3cnnn3CCCC(=O)N([C@H](C)CO)C[C@@H]2C)cc1", "values": [{"measurement": "AC50", "result": "> 10 µM (inactive)"}]}, {"molecule": "O=C(C1CCOCC1)N1C[C@@H]2[C@H](c3ccccc31)[C@@H](CO)N2C(=O)Cc1ccccn1", "values": [{"measurement": "AC50", "result": "> 10 µM (inactive)"}]}, {"molecule": "CCCNC(=O)N1[C@H](CO)[C@H]2c3ccccc3N(C(=O)Nc3cccc(Cl)c3)C[C@H]21", "values": [{"measurement": "AC50", "result": "> 10 µM (inactive)"}]}, {"molecule": "COCC(=O)N1[C@H](CNC(=O)c2ccccn2)[C@H](c2ccccc2)[C@@H]1CO", "values": [{"measurement": "AC50", "result": "> 10 µM (inactive)"}]}, {"molecule": "COCC(=O)N(C)C[C@@H]1[C@@H](c2ccccc2)[C@H](CO)N1C(=O)Cc1ccncc1", "values": [{"measurement": "AC50", "result": "> 10 µM (inactive)"}]}, {"molecule": "C[C@@H]1CN([C@H](C)CO)C(=O)CCCn2nncc2CO[C@H]1CN(C)C(=O)c1cc(-c2ccccc2)on1", "values": [{"measurement": "AC50", "result": "> 10 µM (inactive)"}]}, {"molecule": "COCC(=O)N1[C@@H](CO)[C@@H]2c3ccccc3N(C(=O)c3cccnc3)C[C@@H]21", "values": [{"measurement": "AC50", "result": "> 10 µM (inactive)"}]}, {"molecule": "O=C(Cc1ccccc1)N1C[C@H]2[C@@H](c3ccccc31)[C@@H](CO)N2S(=O)(=O)c1ccccc1", "values": [{"measurement": "AC50", "result": "> 10 µM (inactive)"}]}]}
